Where two headings read alike, the source gives them in different places. Marks after values point to notes of the source that are not given here. Residues, ends and D or L forms follow the SMILES beside them.
Tests used:
[1] = test system: E. coli 25922 (NCIM 2931); format: cell-based, Escherichia coli; conditions: for MIC (*50% inhibition): starred value: 50% inhibition only
Description: (§1) Antimicrobial activity of the synthesized peptides was determined by broth microdilution assay and evaluated based on minimum inhibitory concentration (MIC). […] Gram negative microorganisms (Escherichia coli ATCC 8739, Escherichia coli ATCC 25922) were grown in Mueller-Hinton (MH) broth at 37 °C for 18h on a shaker to obtain an OD600nm of 0.8. Bacterial cultures were diluted in MH broth to obtain a cell density of 10^5–10^6 c.f.u/ml. Different concentrations of peptides, ranging from 1–100 μM were serially diluted in MH broth and inoculated with bacterial cultures in 1:1 ratio in sterile 96-well microtiter plates. The plates were incubated at 37 °C for 18h and antimicrobial activity was evaluated as MIC of the peptides by determining the absorbance at 600nm. The microorganisms were obtained from National Collection of Industrial Microorganisms (NCIM), Pune.

[2] = test system: E. coli 8739 (NCIM 2065); format: cell-based, Escherichia coli; conditions: for inhibition at 100 microM: 8739 (NCIM 2065, 18 h, 100 microM); for MIC (*50% inhibition): starred value: 50% inhibition only
Description: as §1

[3] = Escherichia coli ATCC 25922, MH broth, 37 °C 18h, absorbance at 600nm, average range, triplicates of three independent experiments
[4] = Escherichia coli ATCC 8739, MH broth, 37 °C 18h, absorbance at 600nm, average range, triplicates of three independent experiments
[5] = Escherichia coli ATCC 25922, complete growth inhibition, MH broth, 10^5–10^6 c.f.u/ml, peptides 1–100 μM, 37 °C 18h, absorbance at 600nm, average range, triplicates of three independent experiments
[6] = Escherichia coli ATCC 8739, complete growth inhibition, MH broth, 10^5–10^6 c.f.u/ml, peptides 1–100 μM, 37 °C 18h, absorbance at 600nm, average range, triplicates of three independent experiments

CC[C@H](C)[C@H](NC(=O)CNC(=O)[C@H](CC(=O)O)NC(=O)[C@H](CCCNC(=N)N)NC(=O)[C@@H](NC(=O)[C@H](CC(N)=O)NC(=O)[C@H](CCCNC(=N)N)NC(=O)CNC(=O)[C@@H](NC(=O)[C@H](CCCCN)NC(=O)[C@H](CCC(=O)O)NC(=O)[C@@H](NC(=O)[C@H](CCCCN)NC(=O)[C@H](CCCCN)NC(=O)[C@H](Cc1ccccc1)NC(=O)[C@@H](NC(=O)[C@H](CCCCN)NC(C)=O)[C@@H](C)CC)[C@@H](C)CC)C(C)C)C(C)C)C(=O)N[C@H](C(=O)N[C@@H](CCCCN)C(=O)N[C@@H](C)C(=O)NCC(=O)N1CCC[C@H]1C(=O)N[C@@H](C)C(=O)N[C@H](C(=O)N[C@@H](C)C(=O)N[C@H](C(=O)N[C@H](C(=O)N[C@@H](CCC(=O)O)C(=O)N[C@@H](CCC(N)=O)C(=O)N[C@@H](C)C(N)=O)C(C)C)C(C)C)C(C)C)[C@@H](C)CC [CecH] (Ac-KIFKKIEKVGRNVRDGIIKAGPAVAVVEQA-NH2)
MIC ([1]; 25922 (NCIM 2931, 18 h)): 6.25 to 12.5 µM
antimicrobial activity (in words) ([1]; Escherichia coli ATCC 25922): activity similar to that of gentamycin
MIC ([2]; 8739 (NCIM 2065, 18 h)): 3.125 to 6.25 µM
antimicrobial activity (in words) ([2]; Escherichia coli ATCC 8739): activity similar to that of gentamycin

CSCC[C@H](NC(=O)[C@H](CCCNC(=N)N)NC(=O)[C@H](CCC(N)=O)NC(=O)[C@H](Cc1c[nH]c2ccccc12)NC(=O)[C@H](CO)NC(=O)[C@H](CCC(N)=O)NC(=O)[C@H](CCCCN)NC(C)=O)C(=O)N[C@@H](CCCNC(=N)N)C(=O)N[C@@H](CCCCN)C(=O)N[C@@H](CC(C)C)C(=O)N[C@@H](C)C(=O)N[C@@H](CC(C)C)C(=O)N[C@@H](CCCCN)C(=O)N[C@@H](CCCNC(=N)N)C(N)=O [LactP1] (Ac-KQSWQRMRKLALKR-NH2)
inhibition at 100 microM ([1]; 25922 (NCIM 2931, 18 h, 100 microM)): 50%
MIC (*50% inhibition) [1, 3]: 50–100* microM
inhibition at 100 microM [2]: 50%
MIC (*50% inhibition) [2, 4]: 50–100* microM

CSCC[C@H](NC(=O)[C@H](CCCNC(=N)N)NC(=O)[C@H](CCC(N)=O)NC(=O)[C@H](Cc1c[nH]c2ccccc12)NC(=O)[C@H](CO)NC(=O)[C@H](CCC(N)=O)NC(=O)[C@H](CCCCN)NC(=O)[C@H](CC(C)C)NC(=O)[C@H](CCC(=O)O)NC(=O)[C@H](CCC(=O)O)NC(=O)[C@H](CCCNC(=N)N)NC(=O)[C@H](CCCNC(=N)N)NC(=O)[C@H](CCCNC(=N)N)NC(=O)[C@H](CCCNC(=N)N)NC(C)=O)C(=O)N[C@@H](CCCNC(=N)N)C(=O)N[C@@H](CCCCN)C(=O)N[C@@H](CC(C)C)C(=O)N[C@@H](C)C(=O)N[C@@H](CC(C)C)C(=O)N[C@@H](CCCCN)C(=O)N[C@@H](CCCNC(=N)N)C(N)=O [LactP2] (Ac-RRRREELKQSWQRMRKLALKR-NH2)
MIC (*50% inhibition) [1, 3]: 50–100* microM
MIC ([2]; 8739 (NCIM 2065, 18 h)): 50 to 100 µM
inhibition at 100 microM [2]: 100%

Gentamycin [reference compound]
MIC [1, 5]: 1.56 to 3.125 µM
MIC [2, 6]: 1.56 to 3.125 µM

PLSCRRKIGICVLIRCSGNMRQIGTCLGALVKCCR [DefH, 35-residue defensin family peptide retrieved using HMMs, Class II; N-acetylated, C-amidated]
MIC [1, 5]: NA (Did not show activity upto 100 microM)
MIC (*50% inhibition) [2, 4]: 50–100* microM

WQRMRKL [LactP, N-acetylated, C-amidated]
antimicrobial activity (in words) ([1]; Escherichia coli ATCC 25922): lacks activity
MIC [1, 5]: NA (Did not show activity upto 100 microM)
antimicrobial activity (in words) ([2]; Escherichia coli ATCC 8739): lacks activity
MIC [2, 6]: NA (Did not show activity upto 100 microM)

From paper PMC4836297, “Leveraging family-specific signatures for AMP discovery and high-throughput annotation” (Scientific Reports, 2016)
